The results in this text go back to PubChem BioAssay (NCI).

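Following 48 hours of exposure in 96-well plates, responses at five concentrations were used to interpolate endpoints linearly. GI50: concentration for 50% inhibition of growth. TGI marks complete inhibition of growth.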

Among the test systems are RXF 393 renal; NCI-H460 lung; IGROV1 ovarian; M14 melanoma; DU-145 prostate; UACC-257 melanoma; TK-10 renal; SNB-19 CNS; OVCAR-3 ovarian; SK-MEL-28 melanoma.
Common to all, as to test: DTP human tumour cell line panel, 48 h

The term GI50 denotes the concentration at which growth is held to half of that of the control. By TGI is commonly meant the concentration giving total growth inhibition. The low end stands for greater sensitivity of the cells, the high end for lower sensitivity of the cells. For `c1ccc2c(-c3nc(-c4c[nH]c5ccncc45)cs3)c[nH]c2c1`, the GI50 with RXF 393 renal was 1550 nM; with NCI-H460 lung it was 1760 nM; in the assay with IGROV1 ovarian, 1330 nM; in the assay on M14 melanoma, 1700 nM; in the assay with DU-145 prostate it was 3360 nM; in the assay on UACC-257 melanoma it was 1800 nM. Further, the GI50 in the assay on TK-10 renal was 2760 nM; with SNB-19 CNS it was 2180 nM; in the assay with OVCAR-3 ovarian it was 1980 nM; in the assay with SK-MEL-28 melanoma it was 1840 nM. Moreover, the TGI with RXF 393 renal was determined as 3.03 µM; in the assay with NCI-H460 lung, 3.58 µM; in the assay with IGROV1 ovarian it was 3.83 µM; in the assay with M14 melanoma, 3.46 µM; in the assay with DU-145 prostate it was 11.3 µM; in the assay on UACC-257 melanoma, 3.43 µM. Also, the concentration for total growth inhibition (TGI) with TK-10 renal stood at 4.74 µM; in the assay on SNB-19 CNS, 5.12 µM; with OVCAR-3 ovarian, 3980 nM; in the assay with SK-MEL-28 melanoma, 3.32 µM.
As to `O=C(Oc1ccc(CO[N+](=O)[O-])cc1)c1ccccc1`, the 50% growth inhibitory concentration (GI50) is 165 nM in the assay on RXF 393 renal; 239 nM in the assay on NCI-H460 lung; 203 nM with IGROV1 ovarian; 115 nM in the assay with M14 melanoma; 289 nM in the assay on DU-145 prostate; 207 nM in the assay with UACC-257 melanoma. For the same compound, the concentration for 50% growth inhibition (GI50) in the assay on TK-10 renal is 173 nM; in the assay on SNB-19 CNS, 202 nM; with OVCAR-3 ovarian, 153 nM; in the assay on SK-MEL-28 melanoma, 171 nM. Further, the total growth inhibition concentration (TGI) with RXF 393 renal amounted to 0.319 µM; with NCI-H460 lung it was 1.09 µM; in the assay on IGROV1 ovarian, 0.411 µM; in the assay on M14 melanoma, 0.271 µM; with DU-145 prostate, 0.818 µM; with UACC-257 melanoma it was 0.532 µM. Moreover, the TGI in the assay on TK-10 renal was found to be 0.334 µM; in the assay on SNB-19 CNS, 0.706 µM; in the assay on OVCAR-3 ovarian it was 295 nM; in the assay with SK-MEL-28 melanoma it was 0.332 µM.
With `CSCCCNC(=O)c1ccc2c(c1)/C(=C/c1[nH]c(C)cc1C)C(=O)N2`, the GI50 with RXF 393 renal was 977 nM; in the assay with NCI-H460 lung, 872 nM; in the assay with IGROV1 ovarian, 421 nM; in the assay with M14 melanoma it was 284 nM; in the assay on DU-145 prostate, 700 nM; in the assay with UACC-257 melanoma, 4670 nM. In addition, the GI50 in the assay on TK-10 renal is 6440 nM; in the assay on SNB-19 CNS, 25600 nM; with OVCAR-3 ovarian, 1980 nM; in the assay on SK-MEL-28 melanoma, 1650 nM. The TGI in the assay on RXF 393 renal is 37.1 µM; with NCI-H460 lung it was above 100 µM; with IGROV1 ovarian, above 100 µM; in the assay on M14 melanoma it was above 100 µM; in the assay on DU-145 prostate, above 100 µM; in the assay with UACC-257 melanoma it was above 100 µM. Further, the TGI in the assay with TK-10 renal was above 100 µM; with SNB-19 CNS it was above 100 µM; in the assay on OVCAR-3 ovarian it was above 100000 nM; in the assay on SK-MEL-28 melanoma, above 100 µM.
Regarding `COC(=O)C1=C(C(=O)OC)C2(C)C=CC1O2` (stereo not given), the TGI in the assay with RXF 393 renal was 57.6 µM; with NCI-H460 lung, above 100 µM; in the assay on IGROV1 ovarian it was 37.5 µM; in the assay on M14 melanoma, 32.5 µM; in the assay on DU-145 prostate it was 31.8 µM; with UACC-257 melanoma, 29.4 µM. The concentration for total growth inhibition (TGI) in the assay with TK-10 renal is 8.24 µM; in the assay on SNB-19 CNS, above 100 µM; in the assay with OVCAR-3 ovarian, 2860 nM; in the assay with SK-MEL-28 melanoma it was 29.5 µM.
